PubChem BioAssay AID212 (DTP/NCI, 2004)
Records with an inconclusive call do not appear.

System: BDF1 mice, colon carcinoma 38 sc, T/C %
Experiment: NCI In Vivo Anticancer Drug Screen. Data for tumor model Colon Carcinoma 38 (subcutaneous) in B6D2F1 (BDF1) mice
Summary of the method: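 Transplantable tumor in mice; compound-treated vs vehicle-dosed controls. Measured survival or tumor size; value = T ÷ C.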

## CC1CCC(NC(=O)N(CCCl)N=O)CC1 (configuration not stated)
endpoint: median survival time, dose: 3.3 mg/kg/injection, schedule: Q01DX010 (oral), vehicle: saline with Tween-80, higher = longer survival
  T/C: 115 % of control
endpoint: median survival time, dose: 5.0 mg/kg/injection, schedule: Q04DX005 (ip), vehicle: other, higher = longer survival
  T/C: 93 % of control
endpoint: median survival time, dose: 5.5 mg/kg/injection, schedule: Q01DX010 (oral), vehicle: saline with Tween-80, higher = longer survival
  T/C: 99 % of control
endpoint: median survival time, dose: 9.0 mg/kg/injection, schedule: Q01DX010 (oral), vehicle: saline with Tween-80, higher = longer survival
  T/C: 100 % of control
endpoint: median survival time, dose: 10.0 mg/kg/injection, schedule: Q04DX005 (ip), vehicle: other, higher = longer survival
  T/C: 122 % of control
endpoint: median survival time, dose: 20.0 mg/kg/injection, schedule: Q04DX005 (ip), vehicle: other, higher = longer survival
  T/C: 153 % of control
endpoint: median tumor weight (est.), dose: 4.0 mg/kg/injection, schedule: Q07DX002 (ip), vehicle: Klucel (hydroxypropylcellulose) (HPC), higher = larger tumour
  T/C: 61 % of control
endpoint: median tumor weight (est.), dose: 8.0 mg/kg/injection, schedule: Q07DX002 (ip), vehicle: Klucel (hydroxypropylcellulose) (HPC), higher = larger tumour
  T/C: 53 % of control
endpoint: median tumor weight (est.), dose: 16.0 mg/kg/injection, schedule: Q07DX002 (ip), vehicle: Klucel (hydroxypropylcellulose) (HPC), higher = larger tumour
  T/C: 64 % of control
endpoint: median tumor weight (est.), dose: 32.0 mg/kg/injection, schedule: Q07DX002 (ip), vehicle: Klucel (hydroxypropylcellulose) (HPC), higher = larger tumour
  T/C: 18 % of control

## CC[C@@]1(O)C[C@H](OC2CC(N(C)C)C(OC3CC(O)C(OC4CCC(=O)C(C)O4)C(C)O3)C(C)O2)c2c(cc3c(c2O)C(=O)c2c(O)ccc(O)c2C3=O)[C@H]1C(=O)OC (some centres not stated)
endpoint: median tumor weight (est.), dose: 0.5 mg/kg/injection, schedule: Q07DX002 (ip), vehicle: water, higher = larger tumour
  T/C: 78 % of control
endpoint: median tumor weight (est.), dose: 0.5 mg/kg/injection, schedule: Q07DX003 (ip), vehicle: water, higher = larger tumour
  T/C: 100 % of control
endpoint: median tumor weight (est.), dose: 1.0 mg/kg/injection, schedule: Q07DX002 (ip), vehicle: water, higher = larger tumour
  T/C: 47 % of control
endpoint: median tumor weight (est.), dose: 1.0 mg/kg/injection, schedule: Q07DX003 (ip), vehicle: water, higher = larger tumour
  T/C: 111 % of control
endpoint: median tumor weight (est.), dose: 2.0 mg/kg/injection, schedule: Q07DX002 (ip), vehicle: water, higher = larger tumour
  T/C: 84 % of control
endpoint: median tumor weight (est.), dose: 2.0 mg/kg/injection, schedule: Q07DX003 (ip), vehicle: water, higher = larger tumour
  T/C: 79 % of control
endpoint: median tumor weight (est.), dose: 4.0 mg/kg/injection, schedule: Q07DX002 (ip), vehicle: water, higher = larger tumour
  T/C: 44 % of control
endpoint: median tumor weight (est.), dose: 4.0 mg/kg/injection, schedule: Q07DX003 (ip), vehicle: water, higher = larger tumour
  T/C: 46 % of control
endpoint: median tumor weight (est.), dose: 8.0 mg/kg/injection, schedule: Q07DX002 (ip), vehicle: water, higher = larger tumour
  T/C: 47 % of control

## Cc1ccccc1CN1C2=NCCN2C(=O)C2=C1CCN(S(=O)(=O)c1ccc(Cl)c(S(N)(=O)=O)c1)C2
endpoint: median tumor weight (est.), dose: 50.0 mg/kg/injection, schedule: Q07DX002 (ip), vehicle: saline, higher = larger tumour
  T/C: 97 % of control
endpoint: median tumor weight (est.), dose: 100.0 mg/kg/injection, schedule: Q07DX002 (ip), vehicle: saline, higher = larger tumour
  T/C: 86 % of control
endpoint: median tumor weight (est.), dose: 200.0 mg/kg/injection, schedule: Q07DX002 (ip), vehicle: saline, higher = larger tumour
  T/C: 91 % of control
endpoint: median tumor weight (est.), dose: 400.0 mg/kg/injection, schedule: Q07DX002 (ip), vehicle: saline, higher = larger tumour
  T/C: 96 % of control
endpoint: median tumor weight (est.), dose: 450.0 mg/kg/injection, schedule: Q07DX002 (ip), vehicle: saline, higher = larger tumour
  T/C: 84 % of control
endpoint: median tumor weight (est.), dose: 900.0 mg/kg/injection, schedule: Q07DX002 (ip), vehicle: saline, higher = larger tumour
  T/C: 100 % of control
endpoint: median tumor weight (est.), dose: 1800.0 mg/kg/injection, schedule: Q07DX002 (ip), vehicle: saline, higher = larger tumour
  T/C: 110 % of control

## Cc1c(N)nc([C@H](CC(N)=O)NC[C@H](N)C(N)=O)nc1C(=O)N[C@H](C(=O)N[C@H](C)[C@@H](O)[C@H](C)C(=O)N[C@H](C(=O)NCCc1nc(-c2nc(C(=O)NCCC[S+](C)C)cs2)cs1)[C@@H](C)O)C(OC1OC(CO)C(O)C(O)C1OC1OC(CO)C(O)C(OC(N)=O)C1O)c1cnc[nH]1 (some centres not stated)
endpoint: median tumor weight (est.), dose: 3.0 mg/kg/injection, schedule: Q07DX003 (ip), vehicle: saline, higher = larger tumour
  T/C: 62 % of control
endpoint: median tumor weight (est.), dose: 6.0 mg/kg/injection, schedule: Q07DX003 (ip), vehicle: saline, higher = larger tumour
  T/C: 88 % of control
endpoint: median tumor weight (est.), dose: 12.0 mg/kg/injection, schedule: Q07DX003 (ip), vehicle: saline, higher = larger tumour
  T/C: 63 % of control
endpoint: median tumor weight (est.), dose: 24.0 mg/kg/injection, schedule: Q07DX003 (ip), vehicle: saline, higher = larger tumour
  T/C: 85 % of control
endpoint: median tumor weight (est.), dose: 48.0 mg/kg/injection, schedule: Q07DX003 (ip), vehicle: saline, higher = larger tumour
  T/C: 60 % of control

## C=C1C(O)C2(O)OCC34C(CC5C(C)=CC(=O)C(O)C5(C)C23)OC(=O)C(OC(=O)C(C)(O)CC)C14 (configuration not stated)
endpoint: median tumor weight (est.), dose: 0.12 mg/kg/injection, schedule: Q07DX002 (ip), vehicle: saline + alcohol, higher = larger tumour
  T/C: 93 % of control
endpoint: median tumor weight (est.), dose: 0.25 mg/kg/injection, schedule: Q07DX002 (ip), vehicle: saline + alcohol, higher = larger tumour
  T/C: 71 % of control
endpoint: median tumor weight (est.), dose: 0.5 mg/kg/injection, schedule: Q07DX002 (ip), vehicle: saline + alcohol, higher = larger tumour
  T/C: 93 % of control
endpoint: median tumor weight (est.), dose: 1.0 mg/kg/injection, schedule: Q07DX002 (ip), vehicle: saline + alcohol, higher = larger tumour
  T/C: 52 % of control
endpoint: median tumor weight (est.), dose: 2.0 mg/kg/injection, schedule: Q07DX002 (ip), vehicle: saline + alcohol, higher = larger tumour
  T/C: 57 % of control

## CNC(=O)O/N=C(\CN=[N+]=[N-])C(C)(C)C
endpoint: median tumor weight (est.), dose: 1.0 mg/kg/injection, schedule: Q07DX002 (ip), vehicle: saline, higher = larger tumour
  T/C: 103 % of control
